Experimental data reported in patent publication US20020137929A1, “1 - (3-heterocyclylphenyl) isothiourea, -isourea, -guanidine and -amidine herbicidal agents” (Intellectual Property Department, BASF Aktiengesellschaft, priority 1998, published 2002).

Tests used:
[1] = system: TRZAWR (Wheat, Winter, cv Riband); experiment: Preemergence herbicidal evaluation; assay type: in vivo, Triticum aestivum; details: rated 4-5 weeks after treatment
Excerpt: (§1) Results of herbicide evaluation are expressed on a rating scale (0-9). The scale is based upon a visual observation of plant stand, vigor, malformation, size, chlorosis and overall plant appearance as compared with a control.
(§2) The preemergence herbicidal activity of the test compounds of the present invention is exemplified by the following tests in which the seeds of a variety of monocotyledonous and dicotyledonous plants are separately mixed with potting soil and planted on top of approximately one inch of soil in separate pint cups. After planting, the cups are sprayed with the selected aqueous acetone solution containing test compound in sufficient quantity to provide the equivalent of about 0.0156 to 0.500 kg per hectare of test compound per cup. The treated cups are then placed on greenhouse benches, watered and cared for in accordance with conventional greenhouse procedures. From four to five weeks after treatment, the tests are terminated and each cup is examined and rated according to the rating system provided in Example 37.
(§3) The compounds evaluated are reported by compound number given in Example 37.

CYPIR (Rice Flatsedge) = experiment: Preemergence weed control under flooded paddy conditions; assay type: in vivo, Cyperus iria; details: rated 3-4 weeks after treatment
Procedure: as §1
(§4) Preemergence herbicidal activity under flooded paddy conditions is determined as follows: plant seeds or propagating organs are planted in the top 0.5 cm of silt loam soil in 32 oz. plastic containers with a diameter of 10.5 cm and no drainage holes. Water is added to these containers and maintained at 1.5 to 3 cm above the soil surface for the duration of the experiment. The test compounds are applied as aqueous/acetone mixtures 50/50 v/v pipetted directly into the flood water to give the equivalent of about 0.0313 to 0.500 kg/ha of active ingredient. The treated containers are placed on greenhouse benches and cared for in accordance with conventional greenhouse procedures. Three to four weeks after treatment, the test is terminated and each container is examined and herbicidal effect rated according to the rating system provided in Example 37. The compounds evaluated are reported by compound number given in Example 37.
(§5) Plant species employed in this example are reported by header abbreviation, common name and scientific name.

[2] = system: ECHORC (Watergrass (Calif.)); experiment: as above; assay type: in vivo, Echinochloa oryzoides; details: rated 3-4 weeks after treatment
Procedure: as §1, §4, §5

ABUTH (Velvetleaf) = experiment: Preemergence herbicidal evaluation; assay type: in vivo, Abutilon theophrasti; details: rated 4-5 weeks after treatment
Excerpt: as §1, §2, §3

[3] = system: SAGPY (Arrowhead (Pygmaea)); experiment: Preemergence weed control under flooded paddy conditions; assay type: in vivo, Sagittaria pygmaea; details: rated 3-4 weeks after treatment
Summary of the method: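 Greenhouse paddy assay. Acetone/water (50/50 v/v) solutions dosed into flood water, equivalent to about 0.0313 to 0.500 kg/ha active ingredient, over seeds planted 0.5 cm deep in silt loam. Score: 0-9 visual, based on stand, vigor, malformation, size and chlorosis, 3 to 4 weeks after treatment.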

Structure (SMILES)	Preemergence herbicidal rating TRZAWR ([1]; rate 0.0156 kg/ha)	Preemergence herbicidal rating TRZAWR ([1]; rate 0.0313 kg/ha)	Preemergence herbicidal rating TRZAWR ([1]; rate 0.0625 kg/ha)	Preemergence herbicidal rating TRZAWR ([1]; rate 0.1250 kg/ha)	Preemergence herbicidal rating TRZAWR ([1]; rate 0.2500 kg/ha)	CYPIR herbicidal effect rating (CYPIR (Rice Flatsedge); 0.0313 kg/ha)	CYPIR herbicidal effect rating (CYPIR (Rice Flatsedge); 0.0625 kg/ha)	CYPIR herbicidal effect rating (CYPIR (Rice Flatsedge); 0.1250 kg/ha)	CYPIR herbicidal effect rating (CYPIR (Rice Flatsedge); 0.2500 kg/ha)	ECHORC herbicidal effect rating ([2]; 0.0313 kg/ha)	ECHORC herbicidal effect rating ([2]; 0.0625 kg/ha)	ECHORC herbicidal effect rating ([2]; 0.1250 kg/ha)	ECHORC herbicidal effect rating ([2]; 0.2500 kg/ha)	Preemergence herbicidal rating ABUTH (ABUTH (Velvetleaf); rate 0.0156 kg/ha)	Preemergence herbicidal rating ABUTH (ABUTH (Velvetleaf); rate 0.0313 kg/ha)	Preemergence herbicidal rating ABUTH (ABUTH (Velvetleaf); rate 0.1250 kg/ha)	Preemergence herbicidal rating ABUTH (ABUTH (Velvetleaf); rate 0.2500 kg/ha)	SAGPY herbicidal effect rating ([3]; 0.0313 kg/ha)	SAGPY herbicidal effect rating ([3]; 0.0625 kg/ha)	SAGPY herbicidal effect rating ([3]; 0.1250 kg/ha)	further results
COC(=O)C(Cc1ccc(Cl)cc1)N1C(=O)CSC1=Nc1cc(-n2c(=O)cc(C(F)(F)F)n(C)c2=O)c(F)cc1Cl (racemic) [Compound 77, Methyl α-(p-chlorobenzyl)-2-{{2-chloro-5-[3,6-dihydro-3-methyl-2,6-dioxo-4-(trifluoromethyl)-1(2H)-pyrimidinyl]-4-fluorophenyl}imino}-4-oxo-3-thiazolidineacetate, DL-]	0.0	0.0	0.0	1.0	0.0	0.0	0.0	0.0	0.0	9.0	9.0	9.0	9.0	1.0	0.0	9.0	9.0	0.0	0.0	0.0	Preemergence herbicidal rating ABUTH (ABUTH (Velvetleaf); rate 0.0625 kg/ha): 9.0; SAGPY herbicidal effect rating ([3]; 0.2500 kg/ha): 0.0
CCOC(=O)CN1C(=O)C(Cc2ccccc2OC)SC1=Nc1cc(-n2c(=O)cc(C(F)(F)F)n(C)c2=O)c(F)cc1Cl (centres unmarked) [Compound 37, Ethyl 2-{{2-chloro-5-[3,6-dihydro-3-methyl-2,6-dioxo-4-(trifluoromethyl)-1(2H)-pyrimidinyl]-4-fluorophenyl}imino}-5-(o-methoxybenzyl)-4-oxo-3-thiazolidineacetate]				0.0	0.0											0.0	3.0				Herbicidal rating CYPIR (CYPIR (Rice Flatsedge); 0.0313 kg/ha): 0.0; Herbicidal rating CYPIR (CYPIR (Rice Flatsedge); 0.0625 kg/ha): 0.0; Herbicidal rating CYPIR (CYPIR (Rice Flatsedge); 0.1250 kg/ha): 0.0; Herbicidal rating CYPIR (CYPIR (Rice Flatsedge); 0.2500 kg/ha): 0.0; Herbicidal rating ECHORC ([2]; 0.0313 kg/ha): 4.0; Herbicidal rating ECHORC ([2]; 0.0625 kg/ha): 6.0; Herbicidal rating ECHORC ([2]; 0.1250 kg/ha): 7.0; Herbicidal rating ECHORC ([2]; 0.2500 kg/ha): 7.0; Herbicidal rating SAGPY ([3]; 0.0313 kg/ha): 0.0; Herbicidal rating SAGPY ([3]; 0.0625 kg/ha): 0.0; Herbicidal rating SAGPY ([3]; 0.1250 kg/ha): 0.0; Herbicidal rating SAGPY ([3]; 0.2500 kg/ha): 3.0
C[C@H](C(=O)O)N1C(=O)CSC1=Nc1cc(-n2c(=O)cc(C(F)(F)F)n(C)c2=O)c(F)cc1Cl [Compound 70, 2-{{2-Chloro-5-[3,6-dihydro-3-methyl-2,6-dioxo-4-(trifluoromethyl)-1(2H)-pyrimidinyl]-4-fluoro-phenyl}imino}-α-methyl-4-oxo-3-thiazolidineacetic acid, D-]	0.0	0.0	0.0	1.0	5.0	0.0	2.0	2.0	2.0	0.0	0.0	0.0	0.0	0.0	0.0	6.0	9.0	4.0	4.0	4.0	SAGPY herbicidal effect rating ([3]; 0.2500 kg/ha): 4.0
COC(=O)[C@@H](Cc1ccccc1)N1C(=O)CSC1=Nc1cc(-n2c(=O)cc(C(F)(F)F)n(C)c2=O)c(F)cc1Cl [Compound 74, Methyl α-benzyl-2-{{2-chloro-5-[3,6-dihydro-3-methyl-2,6-dioxo-4-(trifluoromethyl)-1(2H)-pyrimidinyl]-4-fluorophenyl}imino}-4-oxo-3-thiazolidineacetate, D-]	0.0	0.0	1.0	1.0	1.0	0.0	0.0	0.0	0.0	7.0	9.0	9.0	9.0	0.0	4.0	9.0	9.0	3.0	3.0	3.0	Preemergence herbicidal rating ABUTH (ABUTH (Velvetleaf); rate 0.0625 kg/ha): 9.0; SAGPY herbicidal effect rating ([3]; 0.2500 kg/ha): 9.0
C[C@@H](C(=O)OC(C)(C)C)N1C(=O)CSC1=Nc1cc(-n2c(=O)cc(C(F)(F)F)n(C)c2=O)c(F)cc1Cl [Compound 75, tert-Butyl 2-{{2-chloro-5-[3,6-dihydro-3-methyl-2,6-dioxo-4-(trifluoromethyl)-1(2H)-pyrimidinyl]-4-fluorophenyl}imino}-α-methyl-4-oxo-3-thiazolidineacetate, L-]	0.0	0.0	0.0	1.0	2.0	0.0	0.0	6.0	6.0	6.0	6.0	9.0	9.0	0.0	0.0	9.0	9.0	0.0	0.0	0.0	Preemergence herbicidal rating ABUTH (ABUTH (Velvetleaf); rate 0.0625 kg/ha): 9.0; SAGPY herbicidal effect rating ([3]; 0.2500 kg/ha): 3.0
CCOC(=O)[C@H](Cc1ccccc1)N1C(=O)CSC1=Nc1cc(-n2c(=O)cc(C(F)(F)F)n(C)c2=O)c(F)cc1Cl [Compound 80, Ethyl α-benzyl-2-{{2-chloro-5-[3,6-dihydro-3-methyl-2,6-dioxo-4-(trifluoromethyl)-1(2H)-pyrimidinyl]-4-fluorophenyl}imino}-4-oxo-3-thiazolidineacetate, L-]	0.0	0.0	0.0	2.0	1.0	5.0	7.0	7.0	7.0	9.0	9.0	9.0	9.0	0.0	1.0	9.0	9.0	0.0	0.0	0.0	Preemergence herbicidal rating ABUTH (ABUTH (Velvetleaf); rate 0.0625 kg/ha): 9.0; SAGPY herbicidal effect rating ([3]; 0.2500 kg/ha): 0.0
